Data published in patent US12606541B2, “PPARg modulators and methods of use” (Eisai R&D Management Co., Ltd., priority 2020, dated 2026).
Where two headings read alike, the source gives them in different places.

Target: T1, His6-TEV-PPARγ-(234-505) (Homo sapiens, UniProt P37231)
T1 construct: The His6-TEV-PPARγ-(234-505) protein for assay was expressed and purified; TEV cleavage site (N); made in house
T1 sequence (P37231 234-505): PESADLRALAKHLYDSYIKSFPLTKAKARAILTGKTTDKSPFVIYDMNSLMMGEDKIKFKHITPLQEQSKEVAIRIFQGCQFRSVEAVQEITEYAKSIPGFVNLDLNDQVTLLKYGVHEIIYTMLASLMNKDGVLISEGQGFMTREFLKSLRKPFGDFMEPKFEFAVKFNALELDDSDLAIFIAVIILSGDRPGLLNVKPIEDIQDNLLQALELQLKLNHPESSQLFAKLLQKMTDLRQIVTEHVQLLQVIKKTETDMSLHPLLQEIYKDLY
Assay: TR-FRET Assay to Measure Co-R Peptide Recruitment to PPARγ
Type: biochemical
Method in brief: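 Corepressor recruitment is measured by adding terbium-labeled anti-His antibody and FITC SMRT-ID2 peptide, at 5 and 200 nM final, after a 20-minute room-temperature protein–compound incubation. After one further hour, signal is converted to percent response between DMSO and 500 nM T0070907 wells.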

[1] = Co-R peptide recruitment to PPARγ, read-out: TR-FRET AC50

Row | AC50 (Co-R peptide (SMRT-ID2) recruitment, top final concentration 20 μM, read-out: TR-FRET i-Ag, AC50) [µM] | AC50 [1] [µM] | Compound
1 |  | > 1 | O=C(NC1(c2cccc(Cl)c2)CC1)C1CCN(C(=O)c2cc(-c3ccncc3)[nH]n2)CC1 [N-[1-(3-chlorophenyl)cyclopropyl]-1-[5-(pyridin-4-yl)-1H-pyrazole-3-carbonyl]piperidine-4-carboxamide]
2 |  | > 1 | CN1CCCN(C(=O)C2CCN(C(=O)c3cc(-c4ccncc4)[nH]n3)CC2)CC1
3 |  | > 1 | CC(C)(C)c1ccc(CNC(=O)C2CCN(C(=O)c3cc(-c4ccncc4)[nH]n3)CC2)cc1 [N-[(4-tert-butylphenyl)methyl]-1-[5-(pyridin-4-yl)-1H-pyrazole-3-carbonyl]piperidine-4-carboxamide]
4 |  | > 1 | O=C(NC1CCCN(c2ccccc2)C1)C1CCN(C(=O)c2cc(-c3ccncc3)[nH]n2)CC1 (stereo not drawn) [N-(1-phenylpiperidin-3-yl)-1-[5-(pyridin-4-yl)-1H-pyrazole-3-carbonyl]piperidine-4-carboxamide]
5 |  | > 1 | O=C(NCc1ccccc1F)C1CCN(C(=O)c2cc(-c3ccncc3)[nH]n2)CC1 [N-[(2-fluorophenyl)methyl]-1-[5-(pyridin-4-yl)-1H-pyrazole-3-carbonyl]piperidine-4-carboxamide]
6 |  | > 1 | CS(=O)(=O)N1CCC(NC(=O)C2CCN(C(=O)c3cc(-c4ccncc4)[nH]n3)CC2)CC1 [N-(1-methanesulfonylpiperidin-4-yl)-1-[5-(pyridin-4-yl)-1H-pyrazole-3-carbonyl]piperidine-4-carboxamide]
7 |  | > 1 | COc1cc(-c2cc(C(=O)N3CCC(C(=O)NC4CCN(Cc5ccccc5)C4)CC3)n[nH]2)c(Cl)cn1 (stereo not drawn) [N-(1-benzylpyrrolidin-3-yl)-1-[5-(5-chloro-2-methoxypyridin-4-yl)-1H-pyrazole-3-carbonyl]piperidine-4-carboxamide]
8 |  | > 1 | Cc1ccc(NC(=O)C2CCN(C(=O)c3cc(-c4ccncc4)[nH]n3)CC2)cc1 [N-(4-methylphenyl)-1-[5-(pyridin-4-yl)-1H-pyrazole-3-carbonyl]piperidine-4-carboxamide]
9 |  | > 1 | CC1CCC(NC(=O)C2CCN(C(=O)c3cc(-c4ccncc4)[nH]n3)CC2)CC1 (stereo not drawn) [N-(4-methylcyclohexyl)-1-[5-(pyridin-4-yl)-1H-pyrazole-3-carbonyl]piperidine-4-carboxamide]
10 |  | > 1 | O=C(NC1CCC(F)(F)CC1)C1CCN(C(=O)c2cc(-c3ccncc3)[nH]n2)CC1 [N-(4,4-difluorocyclohexyl)-1-[5-(pyridin-4-yl)-1H-pyrazole-3-carbonyl]piperidine-4-carboxamide]
11 |  | > 1 | N#C[C@H]1CC[C@@H](NC(=O)C2CCN(C(=O)c3cc(-c4ccncc4)[nH]n3)CC2)CC1

Continued, compound first:

Row | Compound | AC50 (Co-R peptide (SMRT-ID2) recruitment, top final concentration 20 μM, read-out: TR-FRET i-Ag, AC50) [µM] | AC50 [1] [µM]
12 | CC1CCC(NC(=O)C2CCN(C(=O)c3cc(-c4ccncc4Cl)[nH]n3)CC2)CC1 (mixture of isomers) [Example 109, 1-(5-(3-chloropyridin-4-yl)-1H-pyrazole-3-carbonyl)-N-(4-methylcyclohexyl)piperidine-4-carboxamide] | 0.373 | 
13 | COc1cc(-c2cc(C(=O)N3CC[C@H](CNC(=O)[C@H]4C[C@@H](C)N[C@@H](C)C4)CC34CC4)n[nH]2)c(F)cn1 |  | > 1
14 | O=C(NCc1ccc2c(c1)OCO2)C1CCN(C(=O)c2cc(-c3ccncc3)[nH]n2)CC1 [N-[(2H-1,3-benzodioxol-5-yl)methyl]-1-[5-(pyridin-4-yl)-1H-pyrazole-3-carbonyl]piperidine-4-carboxamide] |  | > 1
15 | COc1cc(-c2cc(C(=O)N3CCC(C(=O)NC4c5ccccc5CC4O)CC3)n[nH]2)c(Cl)cn1 (stereo not drawn) [1-[5-(5-chloro-2-methoxypyridin-4-yl)-1H-pyrazole-3-carbonyl]-N-(2-hydroxy-2,3-dihydro-1H-inden-1-yl)piperidine-4-carboxamide] |  | > 1
16 | CCOc1cc(-c2cc(C(=O)N3CCC(C(=O)N[C@H]4CC[C@@](O)(C(F)(F)F)CC4)CC34CC4)n[nH]2)c(F)cn1 (single isomer, unassigned) |  | > 1
17 | Cc1csc(CNC(=O)C2CCN(C(=O)c3cc(-c4ccncc4)[nH]n3)CC2)n1 [N-[(4-methyl-1,3-thiazol-2-yl)methyl]-1-[5-(pyridin-4-yl)-1H-pyrazole-3-carbonyl]piperidine-4-carboxamide] |  | > 1
18 | COc1cc(-c2cc(C(=O)N3CCC(C(=O)Nc4ncc(C(C)C)s4)CC3)n[nH]2)c(Cl)cn1 [1-[5-(5-chloro-2-methoxypyridin-4-yl)-1H-pyrazole-3-carbonyl]-N-[5-(propan-2-yl)-1,3-thiazol-2-yl]piperidine-4-carboxamide] |  | > 1
19 | COc1cc(-c2cc(C(=O)N3CCC(C(=O)NC4CCN(C(C)=O)C4)CC3)n[nH]2)c(Cl)cn1 (stereo not drawn) [N-(1-acetylpyrrolidin-3-yl)-1-[5-(5-chloro-2-methoxypyridin-4-yl)-1H-pyrazole-3-carbonyl]piperidine-4-carboxamide] |  | > 1
20 | COc1cc(-c2cc(C(=O)N3CC4CC3CC4C(=O)NCc3cccc(Cl)c3)n[nH]2)c(F)cn1 (stereo not drawn) [N-[(3-chlorophenyl)methyl]-2-[5-(5-fluoro-2-methoxypyridin-4-yl)-1H-pyrazole-3-carbonyl]-2-azabicyclo[2.2.1]heptane-5-carboxamide] |  | > 1
21 | COc1cc(-c2cc(C(=O)N3CCC(C(=O)NC4CC[C@H]5[C@H](CCN5C)C4)CC34CC4)n[nH]2)c(F)cn1 (relative stereo) [(7R*)—N-[(3aR,7aS)-1-methyl-octahydro-1H-indol-5-yl]-4-[5-(5-fluoro-2-methoxypyridin-4-yl)-1H-pyrazole-3-carbonyl]-4-azaspiro[2.5]octane-7-carboxamide] |  | > 1
22 | COc1cc(-c2cc(C(=O)N3CC[C@@]4(C(=O)NCc5cccc(Cl)c5)C[C@@H]34)n[nH]2)c(Cl)cn1 (relative stereo) [rel-(1R,5R)-2-[5-(5-chloro-2-methoxypyridin-4-yl)-1H-pyrazole-3-carbonyl]-N-[(3-chlorophenyl)methyl]-2-azabicyclo[3.1.0]hexane-5-carboxamide] |  | > 1
23 | COc1cc(-c2cc(C(=O)N3CCC(C(=O)NCC4OCCCO4)CC3)n[nH]2)c(Cl)cn1 [1-[5-(5-chloro-2-methoxypyridin-4-yl)-1H-pyrazole-3-carbonyl]-N-[(1,3-dioxan-2-yl)methyl]piperidine-4-carboxamide] |  | > 1
24 | COc1cc(-c2cc(C(=O)N3CCC(C(=O)NCc4cccnn4)CC3)n[nH]2)c(Cl)cn1 [1-[5-(5-chloro-2-methoxypyridin-4-yl)-1H-pyrazole-3-carbonyl]-N-[(pyridazin-3-yl)methyl]piperidine-4-carboxamide] |  | > 1
25 | COc1cc(-c2cc(C(=O)N3CCC(C(=O)N(C)C4CCC(C)CC4)CC3)n[nH]2)c(Cl)cn1 (stereo not drawn) [1-[5-(5-chloro-2-methoxypyridin-4-yl)-1H-pyrazole-3-carbonyl]-N-methyl-N-(4-methylcyclohexyl)piperidine-4-carboxamide] |  | > 1
26 | O=C(NCc1ccc(Cl)cc1)C1CCN(C(=O)c2cc(-c3cccnc3)[nH]n2)CC1 [N-[(4-chlorophenyl)methyl]-1-[5-(pyridin-3-yl)-1H-pyrazole-3-carbonyl]piperidine-4-carboxamide] |  | > 1
27 | COc1cc(-c2cc(C(=O)N3CCC(C(=O)NCc4ccc(C#N)nc4)CC3)n[nH]2)c(Cl)cn1 [1-[5-(5-chloro-2-methoxypyridin-4-yl)-1H-pyrazole-3-carbonyl]-N-[(6-cyanopyridin-3-yl)methyl]piperidine-4-carboxamide] |  | > 1
28 | COc1cc(-c2cc(C(=O)N3CCC(C(=O)NCc4ncc(C(F)F)cn4)CC3)n[nH]2)c(Cl)cn1 [1-[5-(5-chloro-2-methoxypyridin-4-yl)-1H-pyrazole-3-carbonyl]-N-{[5-(difluoromethyl)pyrimidin-2-yl]methyl}piperidine-4-carboxamide] |  | > 1
29 | COc1cc(-c2cc(C(=O)N3CCC(C(=O)NCC4CCOCO4)CC3)n[nH]2)c(Cl)cn1 (stereo not drawn) [1-[5-(5-chloro-2-methoxypyridin-4-yl)-1H-pyrazole-3-carbonyl]-N-[(1,3-dioxan-4-yl)methyl]piperidine-4-carboxamide] |  | > 1
30 | COc1cc(-c2cc(C(=O)N3CCC(C(=O)NCC4(C)OCCO4)CC3)n[nH]2)c(Cl)cn1 [1-[5-(5-chloro-2-methoxypyridin-4-yl)-1H-pyrazole-3-carbonyl]-N-[(2-methyl-1,3-dioxolan-2-yl)methyl]piperidine-4-carboxamide] |  | > 1
31 | COc1cc(-c2cc(C(=O)N3CCC(C(=O)NC4CCS(=O)(=O)c5ccccc54)CC3)n[nH]2)c(Cl)cn1 (stereo not drawn) [1-[5-(5-chloro-2-methoxypyridin-4-yl)-1H-pyrazole-3-carbonyl]-N-(1,1-dioxo-3,4-dihydro-2H-1λ^6-benzothiopyran-4-yl)piperidine-4-carboxamide] |  | > 1
32 | COc1cc(-c2cc(C(=O)N3CCC(C(=O)NCc4nccn4C)CC3)n[nH]2)c(Cl)cn1 [1-[5-(5-chloro-2-methoxypyridin-4-yl)-1H-pyrazole-3-carbonyl]-N-[(1-methyl-1H-imidazol-2-yl)methyl]piperidine-4-carboxamide] |  | > 1
33 | COc1cc(-c2cc(C(=O)N3CCC(C(=O)NCCn4ccccc4=O)CC3)n[nH]2)c(Cl)cn1 [1-[5-(5-chloro-2-methoxypyridin-4-yl)-1H-pyrazole-3-carbonyl]-N-[2-(2-oxo-1,2-dihydropyridin-1-yl)ethyl]piperidine-4-carboxamide] |  | > 1
